Measurements reported in US20230000813A1, “COMPOUND FOR THE TREATMENT OF BOVINE OR SWINE RESPIRATORY DISEASE” (Intervet Inc., priority 2016, published 2023).
In brackets after ≈: the same amount, converted by molar mass. Several values for one entry are separate records, joined by “and”; a condition that tells them apart may be missing. Identical values can stand only once. Like-named read-outs stand apart in the source and are kept apart here. Marks after values point to notes of the source that are not given here.

Tests used:
[1] = test system: Mannheimia haemolytica MH 10720 (154, BRD field isolate); assay: MIC, broth-microdilution (CLSI VET01-A4); assay type: cell-based
Outline: (§1)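 Broth microdilution per CLSI VET01-A4 using doubling dilution series of test compound; results interpreted per CLSI VET01-S3. MIC recorded as lowest concentration giving no turbidity visible to the unaided eye.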

[2] = test system: Mannheimia haemolytica MH 12587 (1071, BRD field isolate, macrolide-resistance: erm+, E+); assay: MIC, broth-microdilution (CLSI VET01-A4); assay type: cell-based
Outline: as §1

[3] = test system: Pasteurella multocida PM 6267 (P 2225 (L386), reference strain, mouse infection strain); assay: MIC, broth-microdilution (CLSI VET01-A4); assay type: cell-based
Outline: as §1

[4] = test system: Pasteurella multocida PM 12080 (IV102277-0093, BRD field isolate); assay: MIC, broth-microdilution (CLSI VET01-A4); assay type: cell-based
Outline: as §1

[5] = test system: Mannheimia haemolytica MH 6357 (M7/2, reference strain, cattle infection strain); assay: MIC, broth-microdilution (CLSI VET01-A4); assay type: cell-based
Outline: as §1

[6] = test system: Mannheimia haemolytica MH 6374 (ATCC 33396, reference strain); assay: MIC, broth-microdilution (CLSI VET01-A4); assay type: cell-based
Outline: as §1

[7] = test system: Pasteurella multocida PM 6391 (ATCC 43137, reference strain); assay: MIC, broth-microdilution (CLSI VET01-A4); assay type: cell-based
Outline: as §1

[8] = test system: Pasteurella multocida PM 10775 (080130003051, BRD field isolate); assay: MIC, broth-microdilution (CLSI VET01-A4); assay type: cell-based
Outline: as §1

[9] = test system: 20 isolates of Histophilus (H.) somni; assay: MIC50/MIC90, broth-microdilution, European respiratory tract isolates; assay type: cell-based
Outline: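 Isolates came from the respiratory tract of diseased swine and cattle in several European countries and were epidemiologically unrelated. MICs were determined by broth microdilution with doubling dilutions per CLSI VET01-A4, interpreted per VET01-S3. MIC is the lowest concentration with no visible turbidity.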

[10] = test system: M. haemolytica M7/2, serotype A:1, ID 6357; assay: Mannheimia haemolytica cattle lung infection model, efficacy (Example 8); assay type: in vivo, Holstein black pied cattle calves; set-up: key to General behavior, score: 0 = normal; 1 = slightly depressive; 2 = moderately depressive; 3 = highly depressive; 4 = recumbency; key to Re-isolation of bacteria, Left Bronchial swab / Re-isolation of bacteria, Right Bronchial swab: − no bacterial growth; + low; ++ medium; +++ high amount of bacterial growth; conditions: for Food consumption, cumulated for all animals in the group: 3 calves; for Lung score (including grade and percent Lung consolidation): grade of consolidation 0 to 3
Experimental: 15 male Holstein black pied cattle calves of ca. 4 months age were randomly assigned to the study groups ensuring an equal distribution of body weight. The animal weight was approximately 98-133.5 kg on D-1.
Calves were infected on Day 0 via intratracheal instillation of approximately 300 mL of a M. haemolytica PBS suspension containing approximately 3×10^9 CFU M. haemolytica in late log phase.
Three animals each were treated one hour after infection by subcutaneous (SC) administration of Compound 329 in an aqueous 30% (w/v) Captisol® solution for injection at a dose of 10 mg/kg BW.
The respective dose volume was injected on the sides of the thoracic wall. Injection volumes exceeding 10 mL were divided into one portion of 10 mL administered to the left side and the remaining rest administered at different injection sites on the other side. Animals in one control group were treated with a commercially available Enrofloxacin solution (Baytril ® 10%, Bayer Animal Health) at the recommended dose of 10 mg/kg BW. The second control group was treated with the galenic diluent (30% (w/v) Captisol®, dissolved in water) as placebo.
Food consumption was measured. Single individual blood samples were collected from the 12 animals at the following time points: D-1 (predose), 30 minutes, 2, 4, 6, 24 h and at D2 (ca. 45 h) after administration. After the day 2 blood sampling, the infected cattle were slaughtered. The lungs were weighted. Lung states and lung scores were observed morphologically.
At necropsy from animals treated with test items or the positive control, samples of epithelial lining fluid (ELF), lung tissue, and additionally tissue of liver and kidney were collected. From each lung two bacteriological swaps were taken from the left and right bronchus.
From each lung two tissue samples were collected by clipping from at least two locations, one from morphologically unchanged tissue, one from the edge of pathomorphologically changed areas.

[11] = infected calves, SC 10 mg/kg, in words
[12] = section on day 2, infected calves, SC 10 mg/kg, individual animals and mean, 10 mg/kg
[13] = section on day 2, infected calves, SC 10 mg/kg, individual animals and mean, 10 mg/kg, mean
[14] = section on day 2, infected calves, SC single 10 mg/kg, individual animals

CC(C)(N)C(NC(=O)c1ccc(C#Cc2ccc(CNC3CC3)cc2)cc1)C(=O)NO (stereo not drawn) [C. 329]
MIC ([1]; Mannheimia haemolytica MH 10720, read-out: MIC MH 10720): 0.4 µM | MIC ([1]; strain MH 10720): 0.5 µg/mL | MIC MH 12587 ([2]; Mannheimia haemolytica MH 12587, macrolide-resistant): 1.6 µM (≈ 0.673 µg/mL) | MIC ([2]; strain MH 12587, macrolide-resistant): 0.5 µg/mL (≈ 1.19 µM) | MIC PM 6267 ([3]; Pasteurella multocida PM 6267): <=0.1 μM | MIC ([3]; strain PM 6267): ≤0.016 µg/mL | MIC PM 12080 ([4]; Pasteurella multocida PM 12080): <=0.1 μM | MIC ([4]; strain PM 12080): 0.032 µg/mL (≈ 0.0761 µM) | MIC ([5]; Mannheimia haemolytica MH 6357, read-out: MIC MH 6357): 1.6 µM | MIC ([5]; strain MH 6357): 0.5 µg/mL | MIC ([6]; Mannheimia haemolytica MH 6374, read-out: MIC MH 6374): 0.8 µM | MIC ([6]; strain MH 6374): 0.25 µg/mL | MIC PM 6391 ([7]; Pasteurella multocida PM 6391): <=0.1 μM | MIC ([7]; strain PM 6391): 0.063 µg/mL (≈ 0.15 µM) | MIC PM 10775 ([8]; Pasteurella multocida PM 10775): <=0.1 μM | MIC ([8]; strain PM 10775): ≤0.016 µg/mL | MIC50 [9]: 0.25 µg/mL (≈ 0.595 µM) | MIC90 [9]: 0.25 µg/mL (≈ 0.595 µM) | General behavior, score ([10]; D 0 am (before infection), calves, SC 10 mg/kg, individual animals and mean, 10 mg/kg): 0 | General behavior, score ([10]; D 0 am (before infection), calves, SC 10 mg/kg, individual animals and mean, 10 mg/kg, mean): 0.0 score | Food consumption, cumulated for all animals in the group ([10]; D 0 am, after infection and treatment, SC 10 mg/kg): 470 g | Food consumption, cumulated for all animals in the group ([10]; D 0 pm, SC 10 mg/kg): 1800** g | General behavior, score ([10]; D 0 pm, calves infected with M. haemolytica, SC 10 mg/kg 1 h after infection, individual animals and mean, 10 mg/kg): 2 and 1 (2×) | General behavior, score ([10]; D 0 pm, calves infected with M. haemolytica, SC 10 mg/kg 1 h after infection, individual animals and mean, 10 mg/kg, mean): 1.3 score | General behavior, score ([10]; D 1 am, calves infected with M. haemolytica, SC 10 mg/kg 1 h after infection, individual animals and mean, 10 mg/kg): 1 and 0 (2×) | General behavior, score ([10]; D 1 am, calves infected with M. haemolytica, SC 10 mg/kg 1 h after infection, individual animals and mean, 10 mg/kg, mean): 0.3 score | General behavior, score ([10]; D 1 pm, calves infected with M. haemolytica, SC 10 mg/kg 1 h after infection, individual animals and mean, 10 mg/kg): 1 (2×) and 0 | General behavior, score ([10]; D 1 pm, calves infected with M. haemolytica, SC 10 mg/kg 1 h after infection, individual animals and mean, 10 mg/kg, mean): 0.7 score | General behavior, score ([10]; D 2 am, calves infected with M. haemolytica, SC 10 mg/kg 1 h after infection, individual animals and mean, 10 mg/kg): 0 | General behavior, score ([10]; D 2 am, calves infected with M. haemolytica, SC 10 mg/kg 1 h after infection, individual animals and mean, 10 mg/kg, mean): 0.0 score | Food consumption, cumulated for all animals in the group ([10]; D +1 am, SC 10 mg/kg): 4800 g | Food consumption, cumulated for all animals in the group ([10]; D +1 pm, SC 10 mg/kg): 4800 g | Food consumption, cumulated for all animals in the group ([10]; D −1 (before infection), SC 10 mg/kg): 4800 g | general behavior and food uptake [10, 11]: comparable to the positive control | mean bacterial re-isolation [10, 11]: Very low | Lung score (including grade and percent Lung consolidation) [10, 12]: 32.4 and 29.5 and 37.7 | Lung score (including grade and percent Lung consolidation) [10, 13]: 33.2 | Lung consolidations [10, 12]: 20.9% and 14.8% and 21.6% | Lung weight [10, 12]: 1717 g and 1549 g and 1583 g | Lung/body weight ratio [10, 12]: ~1.3% and 1.36% and 1.30% and 1.41% | Lung consolidations [10, 13]: 19.1% | Lung weight [10, 13]: 1616 g | Re-isolation of bacteria, Left Bronchial swab [10, 14]: − | Re-isolation of bacteria, Right Bronchial swab [10, 14]: − | efficacy in the lung model infection with M. haemolytica in calves ([10]; single SC treatment with 10 mg/kg BW, conclusion in words): good efficacy
